# Tested on: phosphorylated CREB in differentiated PC12 cells
# Experiment: Nuclear p-CREB immunostaining in PC12 cells
# Format: cell-based
# Conditions: 1 μM, 24 h
# Description: Differentiated PC12 cells and mouse embryonic cortical neurons (E17, DIV14) were treated with mock, dextran, alginate, HA-GAGR or midi-GAGR (1 μM) for 24 h and fixed in 3.7% paraformaldehyde. The fixed cells and neurons were immunostained with antibodies against α-tubulin and phosopho-CREB (p-CREB) along with DAPI (nucleus).
substance,measurement,value
dextran,increase of the levels of nuclear p-CREB,not significantly increased

# — US10792301B2, “Therapeutic polysaccharide midi-GAGR and related materials and methods” (priority 2015, dated 2020)
